Measured values from US20240182460A1, “ALLOSTERIC CHROMENONE INHIBITORS OF PHOSPHOINOSITIDE 3-KINASE (PI3K) FOR THE TREATMENT OF DISEASE” (PETRA PHARMA CORPORATION, priority 2022, published 2024).
Where two headings read alike, the source gives them in different places.

Legend:
[1] = target: T1, PI3Kα H1047R (Homo sapiens, UniProt P42336, H1047R); experiment: PI3Kα H1047R mutant in vitro cell based assay, MDA-MB-453 cells (AlphaLisa SureFire); conditions: MDA-MB-453 cell line, 0% FBS, 3 hours treatment
T1 construct: The MDA-MB-453 (ATCC-HTB-131) cell line (PI3Kα H1047R); host or cells: MDA-MB-453
Summary of the method: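 MDA-MB-453 cells (endogenous PI3Kα H1047R) were treated for 3 h in serum-free MEM containing 1 μg/mL insulin, with 10-point 1:3 dilutions in 0.3% DMSO. Lysates were read by AlphaLisa SureFire. IC50 came from a 4-parameter logistic fit of duplicate % inhibition, normalized to DMSO (max) and 1 μM GDC-0032 (min).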

[2] = target: T2, PI3Kα E545K (Homo sapiens, UniProt P42336, E545K); experiment: PI3Kα E545K mutant in vitro cell based assay, MCF-7 cells; conditions: MCF-7 cell line, 0% FBS, 3 hours treatment
Summary of the method: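 MCF-7 cells (PI3Kα E545K) in serum-free MEM with 1 μg/mL insulin were treated 3 h with 10-point 1:3 dilutions in 0.3% DMSO. Lysates were read by SureFire AlphaLisa. IC50 was fitted by 4-parameter logistic to % inhibition relative to DMSO (max) and 1 μM GDC-0032 (min), duplicates averaged.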

[3] = target: T2, PI3Kα E545K; experiment: PI3Kα E545K mutant in vitro cell based assay, MDA-MB-361 cells; set-up: MDA-MB-361 (ATCC-HTB-27) cell line (PI3Kα E545K); host or cells: MDA-MB-361; conditions: MDA-MB-361 cell line, 0% FBS, no insulin, 3 hours treatment
Summary of the method: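 Compound exposure lasted 3 hours, in duplicate 10-point 1:3 dilutions at 0.3% DMSO final, on overnight-attached MDA-MB-361 cells carrying PI3Kα E545K in insulin-free, 0% FBS MEM. Lysates read by SureFire AlphaLISA. Relative IC50 from 4-parameter logistic fit versus DMSO and 1 μM GDC-0032 controls.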

[4] = Metabolic stability and intrinsic clearance in human liver microsomes (MICS); assay type: in vitro ADME; conditions: pH 7.4
Summary of the method: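 Parent depletion by LC-MS/MS, run in duplicate, gave in vitro t1/2 from the slope of ln(% remaining) versus time, converted to CLint (μL/min/mg protein). Incubations: 1 μM compound, microsomes at 0.5 mg/mL, pH 7.4 phosphate, 37° C, ±1 mM NADPH, timepoints 0.5, 5, 15, 30, 60 min.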

T2 sequence (P42336 whole entry E545K): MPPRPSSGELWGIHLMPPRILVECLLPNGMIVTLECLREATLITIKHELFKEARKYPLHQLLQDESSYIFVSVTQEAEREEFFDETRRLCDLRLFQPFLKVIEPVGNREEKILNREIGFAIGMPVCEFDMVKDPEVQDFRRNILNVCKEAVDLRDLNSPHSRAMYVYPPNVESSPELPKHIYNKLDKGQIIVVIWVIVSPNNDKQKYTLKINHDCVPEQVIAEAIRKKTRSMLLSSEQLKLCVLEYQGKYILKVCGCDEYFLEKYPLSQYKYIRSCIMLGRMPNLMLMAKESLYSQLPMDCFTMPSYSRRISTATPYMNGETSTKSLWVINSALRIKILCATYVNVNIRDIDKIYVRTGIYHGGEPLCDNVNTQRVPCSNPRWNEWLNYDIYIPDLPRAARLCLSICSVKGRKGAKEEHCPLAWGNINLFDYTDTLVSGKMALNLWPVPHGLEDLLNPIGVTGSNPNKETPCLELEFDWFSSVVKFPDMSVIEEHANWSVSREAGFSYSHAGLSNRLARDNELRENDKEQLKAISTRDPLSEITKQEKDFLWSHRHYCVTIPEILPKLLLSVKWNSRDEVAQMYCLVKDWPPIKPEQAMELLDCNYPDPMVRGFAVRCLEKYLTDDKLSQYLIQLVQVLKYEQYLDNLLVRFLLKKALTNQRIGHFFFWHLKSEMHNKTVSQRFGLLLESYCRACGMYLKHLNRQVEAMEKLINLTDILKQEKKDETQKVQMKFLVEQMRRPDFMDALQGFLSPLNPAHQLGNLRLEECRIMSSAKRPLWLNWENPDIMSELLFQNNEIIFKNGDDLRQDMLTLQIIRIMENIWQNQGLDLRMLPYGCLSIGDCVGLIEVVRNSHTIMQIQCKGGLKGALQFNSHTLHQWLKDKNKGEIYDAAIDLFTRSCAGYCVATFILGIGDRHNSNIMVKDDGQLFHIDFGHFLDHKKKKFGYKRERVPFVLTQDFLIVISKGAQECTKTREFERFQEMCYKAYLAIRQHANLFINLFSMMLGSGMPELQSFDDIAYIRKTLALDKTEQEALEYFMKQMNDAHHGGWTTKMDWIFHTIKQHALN
T2 sequence (P27986 whole entry partner): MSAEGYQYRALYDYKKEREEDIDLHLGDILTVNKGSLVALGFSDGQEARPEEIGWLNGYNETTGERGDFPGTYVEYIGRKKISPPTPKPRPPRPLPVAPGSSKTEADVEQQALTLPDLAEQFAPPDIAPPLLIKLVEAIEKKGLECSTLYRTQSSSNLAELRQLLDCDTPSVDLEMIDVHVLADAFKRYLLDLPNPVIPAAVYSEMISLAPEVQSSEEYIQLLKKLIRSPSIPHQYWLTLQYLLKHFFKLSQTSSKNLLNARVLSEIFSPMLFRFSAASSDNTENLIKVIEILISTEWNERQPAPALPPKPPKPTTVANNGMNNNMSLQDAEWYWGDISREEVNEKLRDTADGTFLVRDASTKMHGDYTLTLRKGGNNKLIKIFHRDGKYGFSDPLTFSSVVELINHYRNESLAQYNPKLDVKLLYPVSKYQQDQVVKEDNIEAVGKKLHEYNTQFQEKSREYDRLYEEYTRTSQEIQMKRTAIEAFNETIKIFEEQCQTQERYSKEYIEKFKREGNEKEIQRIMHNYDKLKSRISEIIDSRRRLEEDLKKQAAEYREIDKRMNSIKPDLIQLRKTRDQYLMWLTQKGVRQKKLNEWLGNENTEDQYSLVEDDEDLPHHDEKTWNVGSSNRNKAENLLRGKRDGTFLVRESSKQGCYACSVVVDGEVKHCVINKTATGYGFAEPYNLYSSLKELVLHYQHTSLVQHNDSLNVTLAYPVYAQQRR
T1 sequence (P42336 whole entry H1047R): as the sequence (P42336 whole entry E545K) above, with K545E, H1047R counted along it
T1 sequence (P27986 whole entry partner): as the sequence (P27986 whole entry partner) above

| IC50 [1] | IC50 [2] | IC50 [3] | microsomal CLint at 1 μM ([4]; human, microsomes) | microsomal CLint at 1 μM ([4]; human liver microsomes 0.5 mg/mL, 1 μM compound, read-out: intrinsic clearance in human MICS) | Compound |
| --- | --- | --- | --- | --- | --- |
| < 100 nM | < 500 nM | < 500 nM |  |  | Cc1cc([C@@H](C)Oc2ccc(Cl)nc2S(N)(=O)=O)c2oc(-c3ccc(S(C)(=O)=O)cc3)c(C)c(=O)c2c1 [Example 31C, 6-Chloro-3-[(1R)-1-[3,6-dimethyl-2-(4-methylsulfonylphenyl)-4-oxo-chromen-8-yl]ethoxy]pyridine-2-sulfonamide] |
| < 100 nM | < 500 nM | < 500 nM |  |  | Cc1cc([C@@H](C)Oc2ccc(Cl)nc2N)c2oc(-c3cnn(C)c3)c(C)c(=O)c2c1 [Example 30B, 8-[(1R)-1-[(2-Amino-6-chloro-3-pyridyl)oxy]ethyl]-3,6-dimethyl-2-(1-methylpyrazol-4-yl)chromen-4-one] |
| < 100 nM | < 500 nM | < 500 nM |  |  | Cc1cc([C@@H](C)Oc2ccc(Cl)nc2S(C)(=O)=O)c2oc(-c3cnn(C)c3)c(C)c(=O)c2c1 [Example 146A, 8-[(1R)-1-[(6-Chloro-2-methylsulfonyl-3-pyridyl)oxy]ethyl]-3,6-dimethyl-2-(1-methylpyrazol-4-yl)chromen-4-one] |
| < 100 nM | < 500 nM | < 500 nM |  |  | Cc1cc([C@@H](C)Oc2ccc(Cl)nc2S(N)(=O)=O)c2oc(C3CC3)c(C)c(=O)c2c1 [Example 74A, 6-Chloro-3-[(1R)-1-(2-cyclopropyl-3,6-dimethyl-4-oxo-chromen-8-yl)ethoxy]pyridine-2-sulfonamide] |
| < 100 nM | < 500 nM | < 500 nM |  |  | Cc1cc([C@@H](C)Oc2ccc(Cl)nc2S(C)(=O)=O)c2oc(-c3cnn(CCO)c3)c(C)c(=O)c2c1 [Example 29B, 8-[(1R)-1-[(6-Chloro-2-methylsulfonyl-3-pyridyl)oxy]ethyl]-2-[1-(2-hydroxyethyl)pyrazol-4-yl]-3,6-dimethyl-chromen-4-one] |
| < 100 nM | < 500 nM |  | < 50 µL/min/mg |  | Cc1cc([C@@H](C)Oc2ccc(Cl)nc2S(N)(=O)=O)c2oc(-c3cnc(C4CC4)nc3)c(C)c(=O)c2c1 [Example 83A, 6-Chloro-3-[(1R)-1-[2-(2-cyclopropylpyrimidin-5-yl)-3,6-dimethyl-4-oxo-chromen-8-yl]ethoxy]pyridine-2-sulfonamide] |

More lines, now with the values behind:

| Compound | IC50 [1] | IC50 [2] | IC50 [3] | microsomal CLint at 1 μM ([4]; human, microsomes) | microsomal CLint at 1 μM ([4]; human liver microsomes 0.5 mg/mL, 1 μM compound, read-out: intrinsic clearance in human MICS) |
| --- | --- | --- | --- | --- | --- |
| Cc1cc([C@@H](C)Oc2ccc(Cl)nc2C(N)=O)c2oc(-c3ccc4nc(C)sc4c3)c(C)c(=O)c2c1 [Example 68A, 6-Chloro-3-[(1R)-1-[3,6-dimethyl-2-(2-methyl-1,3-benzothiazol-6-yl)-4-oxo-chromen-8-yl]ethoxy]pyridine-2-carboxamide] | < 100 nM | < 500 nM | < 500 nM |  |  |
| Cc1cc([C@@H](C)Oc2ccc(Cl)nc2-c2noc(=O)[nH]2)c2oc(-c3ccccc3)c(C)c(=O)c2c1 [Example 2, 3-[6-Chloro-3-[(1R)-1-(3,6-dimethyl-4-oxo-2-phenyl-chromen-8-yl)ethoxy]-2-pyridyl]-4H-1,2,4-oxadiazol-5-one] | < 100 nM | < 500 nM |  |  | < 50 µL/min/mg |
| Cc1cc([C@@H](C)Oc2ccc(Cl)nc2C(N)=O)c2oc(-c3ccc4[nH]ncc4c3)c(C)c(=O)c2c1 [Example 22B, 6-Chloro-3-[(1R)-1-[2-(1H-indazol-5-yl)-3,6-dimethyl-4-oxo-chromen-8-yl]ethoxy]pyridine-2-carboxamide] | < 100 nM | < 500 nM | < 500 nM |  |  |
| Cc1cc([C@@H](C)Oc2ccc(Cl)nc2C(N)=O)c2oc(-c3ccc4nn(C)cc4c3)cc(=O)c2c1 [Example 52A, 6-Chloro-3-[(1R)-1-[6-methyl-2-(2-methylindazol-5-yl)-4-oxo-chromen-8-yl]ethoxy]pyridine-2-carboxamide] | < 100 nM | < 500 nM | < 500 nM |  |  |
